“Also recorded” adds a separate entry of the source.
Experiments:
[1] = Anti-inflammatory activity; type: in vivo; details: result in words; listed as MS salt, methanesulfonate
dogs = test: Toxicity by intravenous administration in dogs; type: in vivo
Procedure: Further tests were conducted by intravenous administration of the MS salt to the dogs. In these tests 15 dogs were divided into three groups of 2 male and 3 female dogs each. One group was used as a control; only the 5 ml of […] aqueous saline vehicle being injected intravenously. The other two groups of dogs received intravenous injections of the MS salt in the same vehicle; one group a 2.5% solution of the MS salt at a dosage of 7.5 mg/Kg and the other group receiving the same solution at a dosage of 15 mg/Kg.

[2] = Hypolipidic, hypocholesterol, hypoglycemic activity; details: in vivo
central nervous system = test: Central nervous system activity per se, mice; type: in vivo
[3] = tested on: blood-platelet aggregation (collagen); test: Inhibitor action on blood-platelet aggregation, collagen method (ex vivo after gastric tube dosing); type: in vivo, female rats of the Wistar type; details: 100 mg/Kg base equivalent at 48, 24 and 2 h before blood drawing, controls 2.53
Procedure: The inhibitor action on blood-platelet aggregation of the salts of the present invention was determined by two different standard methods known to the art.
The second method is that described in Ferrand J. C., Lale A.--NUMERATION ET AGREGATION PLAQUETTAIRE A L AIDE DE L AUTOCOUNTER. APPLICATION A L ETUDE DE LA TICLOPIDINE. COMM. SYMPOSIUM TECHNICON INDUSTRIE (PARIS, June 15, 1978); Ferrand J. C., Lale A.--EVALUATION EX-VIVO DE L AGREGATION PLAQUETTAIRE PAR UNE TECHNIQUE AUTOMATIQUE SUR SANG TOTAL COMM. SOCIETE FRANCAISE DE BIOLOGIE CLINIQUE (PARIS Sept. 28, 1979); and J. C. Ferrand, A. Lale, D. Aubert and G. Barthelemy--APPRECIATION QUANTITATIVE DE L' ACTIVITE ANTI-AGREGANTE DE LA TICLOPIDINE PAR VOIE AUTOMATIQUE. COMM. REUNION DE L' ASOCIATION FRANCAISE DE PHARMACOLOGISTES DIJON (May 2-3, 1980), and is referred to hereafter as the collagen method.
Groups of 10 female rats of the Wistar type were each dosed with one of the base or one of the salts of the invention and with the corresponding maleate salt of Amselem U.S. Pat. No. 4,097,482, at periods of 48 hours, 24 hours and 2 hours prior to drawing blood for testing by the ADP and collagen techniques referred to above. The active medicaments were administered by means of a gastric tube in the form of a 5% aqueous solution of gum arabic. A dosage level of 100 mg/Kg was used for the base, and for the salts an amount was used sufficient to provide the equivalent amount of the base portion of the salt.

[4] = tested on: central nervous system activity of chloral and "Nembutal"; test: Potentiation of central nervous system activity of chloral and Nembutal; type: in vivo
Analgesic activity = details: in vivo
red globules = test: Anti-sludge activity in vivo in the rat

SMILES: CS(=O)(=O)O.N#Cc1ccccc1CN1CCc2sccc2C1 [Methanesulfonate, 5-o-Cyanobenzyl-4,5,6,7-tetrahydrothieno [3,2-c] pyridine methanesulfonate]
- anti-inflammatory activity [1]: free of anti-inflammatory or vasodilator activity as is the MS salt; also recorded: without anti-inflammatory activity
- toxicity and tolerance in dogs (overall) (dogs; conclusion from oral and intravenous tests): of low toxicity and well-tolerated by dogs
- death (dogs; intravenous, 7.5 and 15 mg/Kg, 2.5% solution in 9% aqueous saline, 23 consecutive days): without the death of any dog
- hypocholesterol activity [2]: no hypolipidic, hypocholesterol
- hypoglycemic activity [2]: no hypolipidic, hypocholesterol, or hypoglycemic activity
- hypolipidic activity [2]: no hypolipidic
- influence on the central nervous system per se, mice (central nervous system): no influence on the central nervous system
- BLOOD PLATELET AGGREGATION, COLLAGEN [3]: 0.59
- potentiation of central nervous system activity of Nembutal ([4]; "Nembutal" (Ca or Na pentobarbital)): does potentialize the central nervous system activity
- potentiation of central nervous system activity of chloral ([4]; chloral): does potentialize the central nervous system activity of chloral
- analgesic properties (Analgesic activity): free of analgesic properties
- anti-sludge activity in vivo, intravenous (red globules; administered intravenously): also in vivo when administered orally or intravenously in the rat
- anti-sludge activity in vivo, oral (red globules; administered orally): also in vivo when administered orally

Reference: patent publication US4400384A, “5-o-Cyanobenzyl-4,5,6,7-tetrahydrothieno [3,2-c] pyridine methanesulfonate and other novel salts thereof” (Sanofi, S.A., priority 1980, dated 1983)
